Measurements from patent publication US12655083B2, “Solid forms of cannabidiol and uses thereof” (Artelo Biosciences, Inc., priority 2017, dated 2026).
In brackets after ≈: the same amount, converted by molar mass.

Legend:
[1] = Approximate (kinetic) solubility estimate by aliquot addition with visual inspection; type: physicochemical; conditions: for solubility: thermodynamic from solid, ambient temperature
Experimental: Weighed samples were treated with aliquots of a solvent or solvent mixture at RT. The mixtures were sonicated between additions to facilitate dissolution. Complete dissolution of the test material was determined by visual inspection. Solubility was estimated based on the total solvent used to provide complete dissolution. The actual solubility may be greater than the value calculated because of the use of solvent aliquots that were too large or due to a slow rate of dissolution. […] If complete dissolution was achieved as a result of only one aliquot addition, the solubility is expressed as “greater than.”
Solubilities were estimated by adding measured aliquots of solvent to weighed amounts of cannabidiol at room temperature (RT). Samples were sonicated in between aliquot additions and dissolution was judged by visual inspection.

[2] = Colour change of solutions from solubility estimates at room temperature; type: physicochemical; conditions: acetone, acetonitrile, DMA, DMF, p-dioxane, ethanol, IPOAc, MEK and methanol; after 1-3 days at room temperature
Experimental: Kinetic solubility estimates of cannabidiol were determined in various solvents to aid in designing screening experiments (Tables 1 and 2). Solubilities were estimated by adding measured aliquots of solvent to weighed amounts of cannabidiol at room temperature (RT). Samples were sonicated in between aliquot additions and dissolution was judged by visual inspection. Discoloration of the solutions produced from solubility estimates in acetone, acetonitrile, DMA, DMF, p-dioxane, ethanol, IPOAc, MEK and methanol were observed after 1-3 days at room temperature.

## C=C(C)[C@@H]1CCC(C)=C[C@H]1c1c(O)cc(CCCCC)cc1O [Cannabidiol]
[1]; organic solvent or mixture, Acetone
  solubility: 23 mg/mL (≈ 73.1 mM)
[1]; organic solvent or mixture, Acetonitrile
  solubility: > 50 mg/mL
[1]; organic solvent or mixture, Cyclohexane
  solubility: 15 mg/mL (≈ 47.7 mM)
[1]; organic solvent or mixture, DCM
  solubility: 19 mg/mL (≈ 60.4 mM)
[1]; organic solvent or mixture, DMSO
  solubility: 21 mg/mL (≈ 66.8 mM)
[1]; organic solvent or mixture, Diethyl Ether
  solubility: > 57 mg/mL
[1]; organic solvent or mixture, EtOAc
  solubility: > 46 mg/mL
[1]; organic solvent or mixture, IPA
  solubility: 14 mg/mL (≈ 44.5 mM)
[1]; organic solvent or mixture, IPOAc
  solubility: > 68 mg/mL
[1]; organic solvent or mixture, MEK
  solubility: > 55 mg/mL
[1]; organic solvent or mixture, MIBK
  solubility: > 59 mg/mL
[1]; organic solvent or mixture, MTBE
  solubility: 34 mg/mL (≈ 108 mM)
[1]; organic solvent or mixture, MeOH
  solubility: > 57 mg/mL
[1]; organic solvent or mixture, NMP
  solubility: 29 mg/mL (≈ 92.2 mM)
[1]; organic solvent or mixture, Octanol
  solubility: 13 mg/mL (≈ 41.3 mM)
[1]; organic solvent or mixture, TFE
  solubility: < 1 mg/mL
[1]; organic solvent or mixture, THF
  solubility: > 71 mg/mL
[1]; organic solvent or mixture, p-dioxane
  solubility: > 48 mg/mL
[1]; Water
  solubility: < 1 mg/mL
[1]; water, aliquot addition method
  Aqueous solubility estimate: <1 mg/mL
[2]
  Discoloration of solutions from solubility estimates: Discoloration
